Source: patent publication US6936457B1 (Merck & Co., Inc., priority 1990, dated 2005)
Where “and” joins values, the source holds several entries; their conditions need not be identical. Equal entries are not always repeated. Where two headings read alike, the source gives them in different places.

Tests used:
[1] = tested on: PC12; assay: 86Rb ion-flux assay, PC12 positive control cells; format: cell-based
[2] = tested on: IMR32; assay: 86Rb ion-flux assay, IMR32 positive control cells; format: cell-based, human
[3] = molecular target: T1, human neuronal nicotinic AChR α3 subunit (Homo sapiens, UniProt P32297); assay: Two-electrode voltage clamp of Xenopus oocytes injected with α3 transcript alone; format: cell-based
T1 construct: expressed in transfected cells; host or cells: Xenopus oocytes injected with in vitro transcript

[4] = molecular target: T2, human neuronal nicotinic AChR β4 subunit (Homo sapiens, UniProt P30926); assay: Two-electrode voltage clamp of Xenopus oocytes injected with β4 transcript alone; format: cell-based
T2 construct: expressed in transfected cells; host or cells: Xenopus oocytes injected with in vitro transcript (KEβ4.6/pGEM or pCMV-KEβ4)
T2 sequence (P30926 22-498): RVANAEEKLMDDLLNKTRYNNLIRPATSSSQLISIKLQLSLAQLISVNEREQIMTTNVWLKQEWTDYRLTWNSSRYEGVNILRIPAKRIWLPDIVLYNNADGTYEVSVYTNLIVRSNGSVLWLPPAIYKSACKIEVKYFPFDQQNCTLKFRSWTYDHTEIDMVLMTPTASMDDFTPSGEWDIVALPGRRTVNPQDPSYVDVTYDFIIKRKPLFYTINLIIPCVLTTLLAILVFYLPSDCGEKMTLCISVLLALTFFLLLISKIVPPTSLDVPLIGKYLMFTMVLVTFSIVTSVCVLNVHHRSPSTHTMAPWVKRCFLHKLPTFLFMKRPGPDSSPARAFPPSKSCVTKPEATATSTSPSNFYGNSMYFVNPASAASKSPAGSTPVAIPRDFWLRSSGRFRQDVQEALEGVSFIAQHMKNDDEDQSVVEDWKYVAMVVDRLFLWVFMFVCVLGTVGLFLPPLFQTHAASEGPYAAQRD

[5] = molecular target: T3, human neuronal nicotinic AChR α3 and β4 subunits (Homo sapiens, UniProt P30926+P32297); assay: Two-electrode voltage clamp of Xenopus oocytes injected with α3 and β4 transcripts; format: cell-based
T3 construct: expressed in transfected cells; host or cells: Xenopus oocytes injected with in vitro transcripts

[6] = molecular target: human neuronal nicotinic AChR α7 subunit (Homo sapiens, UniProt P36544); format: cell-based
Sequence of human neuronal nicotinic AChR α7 subunit (P36544 23-502): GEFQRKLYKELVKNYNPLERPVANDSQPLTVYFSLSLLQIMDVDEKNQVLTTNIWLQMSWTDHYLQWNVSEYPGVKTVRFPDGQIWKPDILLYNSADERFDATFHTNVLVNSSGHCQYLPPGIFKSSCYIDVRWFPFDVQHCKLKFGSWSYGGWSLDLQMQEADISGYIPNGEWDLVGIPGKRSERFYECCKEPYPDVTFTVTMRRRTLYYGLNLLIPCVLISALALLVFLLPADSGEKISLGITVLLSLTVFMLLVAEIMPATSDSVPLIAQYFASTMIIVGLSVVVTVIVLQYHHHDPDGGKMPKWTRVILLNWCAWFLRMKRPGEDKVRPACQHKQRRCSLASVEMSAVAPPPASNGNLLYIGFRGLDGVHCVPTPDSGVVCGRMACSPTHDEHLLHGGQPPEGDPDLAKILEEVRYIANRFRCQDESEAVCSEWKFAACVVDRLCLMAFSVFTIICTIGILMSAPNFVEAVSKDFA

[7] = molecular target: human neuronal nicotinic AChR α3 and β2 subunits (Homo sapiens, UniProt P17787+P32297); format: cell-based
Sequence of human neuronal nicotinic AChR α3 and β2 subunits (P17787 26-502, one chain of several): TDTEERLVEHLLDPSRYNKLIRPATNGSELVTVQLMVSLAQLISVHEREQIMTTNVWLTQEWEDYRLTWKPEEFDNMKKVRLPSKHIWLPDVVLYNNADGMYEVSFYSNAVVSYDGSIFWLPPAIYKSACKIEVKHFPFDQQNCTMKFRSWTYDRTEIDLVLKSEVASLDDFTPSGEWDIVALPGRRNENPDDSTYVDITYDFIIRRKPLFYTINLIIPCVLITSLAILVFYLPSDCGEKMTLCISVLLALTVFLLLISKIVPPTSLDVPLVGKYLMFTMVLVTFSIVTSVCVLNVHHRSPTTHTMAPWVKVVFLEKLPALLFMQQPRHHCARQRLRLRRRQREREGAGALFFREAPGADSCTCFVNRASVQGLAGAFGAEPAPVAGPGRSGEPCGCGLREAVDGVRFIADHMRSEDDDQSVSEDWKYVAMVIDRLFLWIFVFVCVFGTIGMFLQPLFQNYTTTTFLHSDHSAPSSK

[8] = molecular target: T3, human neuronal nicotinic AChR α3 and β4 subunits; format: cell-based
[9] = molecular target: human α3β2α5 nAChR (Homo sapiens, UniProt P17787+P30532+P32297, D398N); format: cell-based
Sequence of human α3β2α5 nAChR (P32297 32-505): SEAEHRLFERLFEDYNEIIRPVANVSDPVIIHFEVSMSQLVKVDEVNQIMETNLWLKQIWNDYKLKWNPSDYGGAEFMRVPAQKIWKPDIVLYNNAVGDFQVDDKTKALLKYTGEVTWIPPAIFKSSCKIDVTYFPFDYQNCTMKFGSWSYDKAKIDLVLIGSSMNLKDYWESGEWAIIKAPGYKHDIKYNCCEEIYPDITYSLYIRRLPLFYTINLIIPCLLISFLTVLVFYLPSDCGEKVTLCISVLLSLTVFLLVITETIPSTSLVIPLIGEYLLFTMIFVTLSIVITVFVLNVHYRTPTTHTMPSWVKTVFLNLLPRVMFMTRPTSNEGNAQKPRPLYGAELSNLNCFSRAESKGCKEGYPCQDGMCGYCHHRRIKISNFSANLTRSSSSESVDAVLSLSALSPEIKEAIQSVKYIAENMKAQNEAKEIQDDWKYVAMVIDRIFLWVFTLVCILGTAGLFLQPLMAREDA
Sequence of human α3β2α5 nAChR (P17787 26-502): as the sequence (P17787 26-502, one chain of several) above

[10] = molecular target: T4, human α7 nAChR (Homo sapiens, UniProt P36544); format: cell-based
T4 sequence (P36544 23-502): as the sequence (P36544 23-502) above

[11] = molecular target: T4, human α7 nAChR; format: binding
[12] = Rattus norvegicus, PC-12, PC12, agonists and antagonists, read-out: EC50
[13] = Homo sapiens, IMR-32, IMR32, agonists and antagonists, read-out: EC50

Compound: C[N+](C)(C)CCOC(N)=O.[Cl-] [CCh, carbamylcholine]
- Maximum response [1]: 3.3 X^b
- EC50 ([1]; read-out: EC50): 35 µM
- Maximum response [2]: 7.6 X^c
- EC50 ([2]; read-out: EC50): 230 µM

Compound: CN1[C@@H]2CC[C@H]1C[C@@H](OC(=O)C(CO)c1ccccc1)C2 (stereo partly shown) [atropine]
- EC50 ([2]; Homo sapiens, IMR-32): 43 µM

Compound: O=c1cccc2n1C[C@@H]1CNC[C@H]2C1 [cytisine]
- response of oocytes to application of agonist [3]: did not respond
- response of oocytes to application of agonist [4]: did not respond
- Number of oocytes responding [5]: 3 of 4 and 5 of 5 and 6 of 6
- inward currents in response to agonist [5]: detectable inward currents
- relative potency of the agonists [5]: cytisine>ACh>nicotine
- Maximum response [1]: 3.6 X^d
- EC50 ([1]; Rattus norvegicus, PC-12): 57 µM
- Maximum response [2]: 10 X^e
- EC50 ([2]; Homo sapiens, IMR-32): 14 µM

Compound: COc1cc2c3cc1Oc1cc(ccc1O)C[C@@H]1c4c(cc(OC)c(O)c4Oc4ccc(cc4)C[C@@H]3N(C)CC2)CC[N+]1(C)C [d-tubocurarine]
- block of the responses to ACh and nicotine [5]: reproducibly blocked
- blockage of the response to ACh [5]: complete blockage
- reversibility of the inhibition [5]: appeared to be reversible
- block of the response to ACh [6]: blocked
- block of the current response to ACh [7]: blocked
- nicotine-stimulated increase in fluorescence in presence of antagonist [8]: not observed
- nicotine-stimulated increase in fluorescence in presence of antagonist [9]: not observed
- EC50 ([1]; read-out: EC50): 0.81 µM
- EC50 ([2]; read-out: EC50): 2.5 µM

Compound: Clc1ccc(C2CC3CCC2N3)cn1 (stereo not shown) [epibatidine]
- response of individual cells [10]: homogenous manner

Compound: C[N+](C)(C)CCCCCC[N+](C)(C)C [hexamethonium]
- EC50 ([2]; Homo sapiens, IMR-32): 22 µM

Compound: CNC1(C)C2CCC(C2)C1(C)C (stereo not shown) [mecamylamine]
- block of the responses to ACh, nicotine and cytisine [5]: at least partially blocked
- EC50 [1, 12]: 0.42 µM
- EC50 [2, 13]: 0.11 µM

Compound: CN1CCCC1c1cccnc1 (stereo not shown) [nicotine]
- Number of oocytes responding [3]: 0 of 8
- response of oocytes to application of agonist [3]: did not respond
- Number of oocytes responding [4]: 0 of 9
- response of oocytes to application of agonist [4]: did not respond
- Number of oocytes responding [5]: 4 of 5 and 3 of 4 and 5 of 5 and 6 of 6
- inward currents in response to agonist [5]: detectable inward currents
- Number of oocytes responding [7]: 2 of 9 and 0 of 9
- fluorescence (intracellular calcium) after addition of agonist [8]: increased dramatically
- fluorescence (intracellular calcium) after addition of agonist [9]: increased dramatically
- Maximum response ([1]; PC12, at 200 μM nicotine, 300 μM CCh, 1 mM cytisine (footnotes)): 2.1 X^a
- EC50 [1, 12]: 52 µM
- EC50 [2, 13]: 18 µM
- Maximum response ([2]; IMR32, at 200 μM nicotine, 3 mM CCh, 100 μM cytisine (footnotes)): 7.7 X^a

Compound: α-bungarotoxin
- [3H]-MLA binding displaced [11]: approximately 65%
- IC50 ([11]; read-out: IC50, displacement of [3H]-MLA binding): 0.003 µM
